106 compounds from PubChem BioAssay AID1996 can be followed below.

In brackets after ≈: the same amount, converted by molar mass. Bounds are passed on as bounds.

For this data set the following is noted: buffer; pH 7.4; 200.0 µM.
For orientation: solubility (kinetic) means the concentration staying in solution when a stock, usually in DMSO, is diluted into the medium. `CCN(Cc1ccncc1)C(=O)c1ccco1` returned a kinetic solubility of 0.0294 mg/mL (≈ 128 µM).
The compound `O=C(Nc1ccccc1)c1c2c(nc3ccccc13)CCCC2` registered a kinetic solubility of 0.0005 mg/mL (≈ 1.65 µM).
As for `Cc1ccc2c(COC(=O)c3c(C)noc3C)cc(=O)oc2c1`, the figure is 0.0031 mg/mL (≈ 9.89 µM); as for `Cc1ccc(C2Nc3ccccc3C(=O)N2CCCN2CCOCC2)cc1` (stereo unspecified), 0.0503 mg/mL (≈ 138 µM).
Under `O=C(NC1CCCCCC1)C(=S)N1CCOCC1` stands 0.0231 mg/mL (≈ 85.4 µM); under `CCc1cc(=O)[nH]c(SCc2cccc3ccccc23)n1`, 0.0028 mg/mL (≈ 9.45 µM); under `CCOc1ccccc1NC(=S)NCCc1ccc(F)cc1`, 0.0254 mg/mL (≈ 79.8 µM).
`S=C(NCc1cccc(Cl)c1)NCc1ccco1` displayed a solubility (kinetic) of 0.0299 mg/mL (≈ 106 µM). This solubility kinetic and that of the compound before are within 1.5-fold of each other.
In the case of `COC(=O)C1CN(C(=O)COc2ccc(C)cc2)c2ccccc2O1` (stereo unspecified), the solubility (kinetic) is 0.0491 mg/mL (≈ 144 µM).
With `Cc1ccc(CN(Cc2ccco2)C(=S)Nc2ccccc2C)cc1`, the kinetic solubility was determined as 0.0004 mg/mL (≈ 1.14 µM).
With `CCOc1ccccc1C(=O)NCC(=O)N(C)Cc1cccnc1`, the solubility (kinetic) is 0.0448 mg/mL (≈ 137 µM).
Under `Cc1cc(F)ccc1S(=O)(=O)N(CC(=O)N1CCOCC1)CC(=O)N1CCOCC1` stands above 0.0665 mg/mL; under `Cc1cccn(Cc2c(F)cccc2Cl)c1=O`, above 0.0378 mg/mL.
As for `CCC(C)(C)NC(=O)c1ccc2c(c1)OCCO2`, the figure is above 0.0374 mg/mL.
As for `CSCC(=O)Nc1nc(-c2ccc3c(c2)OCCO3)cs1`, the figure is 0.0052 mg/mL (≈ 16.1 µM); as for `CN(C)S(=O)(=O)N1CCN(c2ccc([N+](=O)[O-])c(NC3CC3)c2)CC1`, 0.0006 mg/mL (≈ 1.62 µM).
Consider `S=c1nc(C2CCCCC2)[nH]c2ccccc12`, for which the kinetic solubility worked out at 0.0005 mg/mL (≈ 2.05 µM).
As for `O=C1C(Cl)=C(N2CCCCCC2)C(=O)N1c1ccccc1Cl`, the figure is 0.0257 mg/mL (≈ 75.8 µM); as for `Cc1ccc2[nH]c(=O)c(-c3noc(CC(C)C)n3)cc2c1`, 0.0051 mg/mL (≈ 18 µM); as for `COc1ccc(S(=O)(=O)NCCc2ccccn2)cc1`, above 0.0439 mg/mL.
As for `Cc1cc(C)c(C)c(S(=O)(=O)NCCN2CCOCC2)c1C`, the figure is 0.0488 mg/mL (≈ 149 µM); as for `CCOC(=O)Cn1ccc(NC(=O)COc2ccc(F)cc2)n1`, above 0.0482 mg/mL; as for `Cc1ccc(C(=O)O)cc1N1CCCC1=O`, above 0.0329 mg/mL.
Turning to `Cc1ccc(SCC(=O)NCC2CCCO2)cc1` (stereo unspecified), the solubility (kinetic) was above 0.0398 mg/mL.
As for `CSc1ccc(NC(=O)NCc2cccnc2)cc1`, the figure is above 0.041 mg/mL.
As for `COC(=O)CC(c1ccc(C#N)cc1)n1c(C)ccc1C` (stereo unspecified), the figure is above 0.0424 mg/mL; as for `Cc1ccc(N2CN(Cc3ccco3)CNC2=S)cc1`, 0.0338 mg/mL (≈ 118 µM).
As for `CCCCn1c(O)c(C(C)=NCc2cccnc2)c(=O)[nH]c1=O`, the figure is above 0.0475 mg/mL; as for `Cc1ccc2c(COC(=O)C3CC(=O)N(c4ccc5c(c4)OCCO5)C3)cc(=O)oc2c1` (stereo unspecified), 0.0196 mg/mL (≈ 45 µM); as for `CC(CC(=O)NCCc1ccc(F)cc1)c1ccccc1` (stereo unspecified), 0.0393 mg/mL (≈ 138 µM).
Turning to `CCOc1ccc(NC(=S)NCc2ccc3c(c2)OCO3)cc1`, the kinetic solubility turned out to be 0.0171 mg/mL (≈ 51.8 µM).
Consider `Cc1ccc(Nc2nc(NCCO)c3ccccc3n2)cc1C.Cl`, for which the solubility (kinetic) is 0.0309 mg/mL.
As for `O=c1nc(SCc2c(F)cccc2Cl)nc(-c2ccccc2)[nH]1`, the figure is 0.0041 mg/mL (≈ 11.8 µM).
Consider `CC(C)C(=O)Nc1c(-c2ccccc2F)c(=O)c2ccccc2n1C`, for which the solubility (kinetic) worked out at 0.0494 mg/mL (≈ 146 µM).
As for `Cc1cc(Cl)ccc1OCC(=O)Nc1cccnc1`, the figure is 0.0353 mg/mL (≈ 128 µM); as for `Cc1c(C=C2C(=O)c3ccccc3C2=O)cc(C#N)n1C`, 0.0006 mg/mL (≈ 2.17 µM); as for `CCc1ccc(C(CC(=O)O)N2Cc3ccccc3C2=O)cc1` (stereo unspecified), above 0.0464 mg/mL.
Under `COc1cccc([C@@]2(O)CCCC[C@@H]2CN(C)C)c1` stands above 0.0395 mg/mL.
As for `COC(=O)C1C(=O)c2c(C)noc2CC1(C)C` (stereo unspecified), the figure is above 0.0356 mg/mL; as for `Cc1ccc(S(=O)(=O)N2CCN(C(=O)COC(=O)COc3cccc(C(F)(F)F)c3)CC2)c(C)c1`, 0.0087 mg/mL (≈ 16.9 µM); as for `CCc1c(C#N)c(=O)[nH]c(=O)n1-c1ccccc1`, above 0.0362 mg/mL.
`CCOC(=O)Cc1csc(NC(=O)Nc2cccs2)n1` came in with a solubility (kinetic) of 0.0184 mg/mL (≈ 59.1 µM).
As for `CNc1oc(-c2ccccc2)nc1S(=O)(=O)c1ccc(C)cc1`, the figure is 0.0053 mg/mL (≈ 16.1 µM).
Compound `O=C(Cc1cccs1)Nc1ccc(F)c(F)c1` came in with a solubility (kinetic) of 0.0209 mg/mL (≈ 82.5 µM). This solubility kinetic lies about 3.9-fold higher than the previous one.
Turning to `CCCCNC(=O)COC(=O)c1ccc(F)cc1Cl`, the solubility (kinetic) was above 0.0432 mg/mL.
Take `c1cncc(-c2nc(-c3ccc4c(c3)OCCO4)cs2)c1`: the solubility (kinetic) was determined as 0.0046 mg/mL (≈ 15.5 µM).
As for `Cc1nc2ccccc2c(=O)n1Cc1ccc([N+](=O)[O-])cc1`, the figure is above 0.0443 mg/mL; as for `COc1ccc(C(=O)Nc2cccc3ccccc23)cc1`, 0.0011 mg/mL (≈ 3.97 µM).
As for `C=CCNC(=S)NC(=O)c1csc([N+](=O)[O-])c1`, the figure is 0.0385 mg/mL (≈ 142 µM); as for `O=C(CSc1cccc[n+]1[O-])NC1CCCCC1`, above 0.04 mg/mL.
`CC1CCCC(NC(=O)/C=C/c2c(F)cccc2Cl)C1C` (stereo unspecified) registered a kinetic solubility of 0.0009 mg/mL (≈ 2.9 µM).
`Cc1c(C(=O)N2CCOCC2)cc(C(C)(C)C)n1-c1ccccc1` registered a kinetic solubility of 0.0453 mg/mL (≈ 139 µM). Compared with the last compound, the solubility kinetic is about 50-fold higher.
As for `O=C(Nc1ccccc1)OCCOc1cccc(Br)c1`, the figure is 0.0066 mg/mL (≈ 19.6 µM); as for `O=c1[nH]c2cc(NCCO)c([N+](=O)[O-])cc2[nH]1`, above 0.0357 mg/mL.
`Cl.NCCS` displayed a kinetic solubility above 0.017 mg/mL.
Under `Cc1ccc(C)c(NC(=S)NCCc2c[nH]c3ccccc23)c1` stands 0.0171 mg/mL (≈ 52.9 µM); under `Cc1ccc(NC(=O)CN2CCc3ccccc3C2)cc1F`, 0.0231 mg/mL (≈ 77.4 µM).
`CCOC(=O)C1CCN(C(=O)C2COc3ccccc3O2)CC1` (stereo unspecified): the kinetic solubility was 0.0323 mg/mL (≈ 101 µM).
`COC(=O)C1=C(Nc2cc(Cl)cc(Cl)c2)CSC1` displayed a solubility (kinetic) below 0.0007 mg/mL.
Under `Cc1ccc(NC(=O)C2C3CCC(O3)C2C(=O)O)cc1Cl` (stereo unspecified) stands 0.0278 mg/mL (≈ 89.8 µM); under `COc1ccccc1CC(=O)N1CCN(c2ccccc2)CC1`, above 0.0466 mg/mL; under `COc1ccc(N2CC(C(=O)N3CCN(C)CC3)CC2=O)cc1` (stereo unspecified), 0.0438 mg/mL (≈ 138 µM).
For the compound `CC(=O)Nc1c(O)nc(C)[nH]c1=O`, the kinetic solubility is above 0.0275 mg/mL.
As for `N#Cc1cccc(Cn2cc(C(F)(F)F)ccc2=O)c1`, the figure is 0.0417 mg/mL (≈ 150 µM).
As for `O=c1[nH]cnc2c1ncn2[C@@H]1O[C@H](CO)[C@@H](O)[C@H]1O`, the figure is above 0.0402 mg/mL.
As for `C[C@@H]1NC(=O)N[C@@H]1CCCCCC(=O)O`, the figure is above 0.0321 mg/mL; as for `Cc1ccc(CNC(=O)Nc2ccc(OC(F)(F)F)cc2)n1C`, 0.0094 mg/mL (≈ 28.7 µM).
In turn, `NC(=O)c1ccccc1NC(=O)Cc1cccs1` showed a kinetic solubility of 0.0383 mg/mL (≈ 147 µM).
Consider `COc1cccc(CNC(=O)c2ccc(C3SCCS3)cc2)c1`, for which the solubility (kinetic) stood at 0.0105 mg/mL (≈ 30.4 µM).
Under `O=S(=O)(Oc1ccccc1N1CCCCC1)c1ccccc1` stands 0.0023 mg/mL (≈ 7.25 µM); under `CCn1ccnc1C(O)c1cccc2ccccc12` (stereo unspecified), above 0.0378 mg/mL.
For `Cc1ccc(CNC(=O)CCCc2c[nH]c3ccccc23)cc1`, the solubility (kinetic) turned out to be 0.0176 mg/mL (≈ 57.4 µM).
Under `CN(CC(=O)NCc1ccc2c(c1)OCO2)S(=O)(=O)c1ccc(Cl)cc1` stands 0.0086 mg/mL (≈ 21.7 µM).
In turn, `CC12CC3(C)CC(C)(C1)CC(C(=O)NCc1cccnc1)(C2)C3` had a kinetic solubility above 0.0469 mg/mL.
Under `CC(C)c1nnc(NC(=O)C2CCCO2)s1` (stereo unspecified) stands above 0.0362 mg/mL; under `CCCCC(C(=O)NC(C)c1ccccc1)C(=O)NC(C)c1ccccc1` (stereo unspecified), 0.0015 mg/mL (≈ 4.09 µM); under `COc1ccc(N2C(=S)NC3CS(=O)(=O)CC32)cc1` (stereo unspecified), above 0.0448 mg/mL.
As for `O=C(CCc1nc(-c2ccc(Cl)cc2)no1)NCC1CCCO1` (stereo unspecified), the figure is above 0.0504 mg/mL; as for `N#Cc1cc(Cl)c(NCC2CCCO2)cc1C#N` (stereo unspecified), 0.0182 mg/mL (≈ 69.5 µM).
As for `CCN(C(=O)CCc1ccccc1)C1CCCCC1`, the figure is 0.0268 mg/mL (≈ 103 µM); as for `COc1c(Cl)cccc1-c1cn2ccccc2n1`, 0.002 mg/mL (≈ 7.73 µM).
For the compound `O=C(c1cc([N+](=O)[O-])ccc1N1CCCC1)N1CCCC1`, the kinetic solubility is above 0.0434 mg/mL.
Compound `CCOc1cccnc1Sc1ccccc1` displayed a kinetic solubility of 0.0277 mg/mL (≈ 120 µM).
`Cc1cc(C)nc(SCC(=O)Nc2nccs2)n1` registered a kinetic solubility above 0.0421 mg/mL.
As for `CC(C)c1ccc(C(O)c2nc3ccccc3n2C)cc1` (stereo unspecified), the figure is 0.0103 mg/mL (≈ 36.7 µM); as for `O=C1C2C3c4ccccc4C(c4ccccc43)[C@@H]2C(=O)N1c1ccccn1` (stereo partly specified), 0.0029 mg/mL (≈ 8.23 µM); as for `O=c1[nH]cnc2sc3c(c12)CCC3`, above 0.0288 mg/mL.
For `Cc1[nH]c(=O)[nH]c(=O)c1Sc1ccccc1[N+](=O)[O-]`, the solubility (kinetic) worked out at 0.0205 mg/mL (≈ 73.4 µM).
Under `COC1C(C)=C(C)C(=O)N1Cc1ccc(F)cc1` (stereo unspecified) stands 0.0319 mg/mL (≈ 128 µM); under `O=C(O)CC1(CC(=O)Nc2ccc3c(c2)OCCCO3)CCCCC1`, 0.0506 mg/mL (≈ 146 µM).
Under `O=C(CCCn1cc([N+](=O)[O-])cn1)NCc1ccccc1` stands above 0.0432 mg/mL; under `Cc1cc(NC(=O)c2cc(S(=O)(=O)N3CCCCC3)ccc2C)no1`, 0.0142 mg/mL (≈ 39.1 µM); under `CC(NS(=O)(=O)/C=C/c1ccccc1)C(=O)O` (stereo unspecified), 0.0342 mg/mL (≈ 134 µM).
In turn, `COc1ccc(CNc2ccc(C)c(C)c2)cc1` displayed a solubility (kinetic) of 0.0015 mg/mL (≈ 6.22 µM).
Under `COc1ccc(NC(=O)c2cccc(Oc3ccccc3)c2)cn1` stands 0.0088 mg/mL (≈ 27.5 µM); under `CC1CCN(C(=O)c2ccc(S(=O)(=O)N3CCOCC3)cc2)CC1`, 0.0432 mg/mL (≈ 123 µM).
Under `Cc1c2n(c3ccccc13)CC/C2=N\O` stands 0.0049 mg/mL (≈ 24.5 µM).
Under `COc1ccc(CNC(=O)CNC(=O)c2ccc(Br)o2)cc1OC` stands 0.0531 mg/mL (≈ 134 µM).
`Cc1ccc(N(Cc2cc(=O)[nH]c3ccccc23)C(=O)C(C)C)cc1` yielded a kinetic solubility of 0.0475 mg/mL (≈ 142 µM).
On to `CC(C)Oc1ccc(CC2(CCc3ccncc3)C(=O)NC(=O)NC2=O)cc1`, for which the kinetic solubility stood at 0.0077 mg/mL (≈ 20.2 µM).
As for `Cc1ccc(OC(F)F)c(N2C(=O)C3C4CCC(O4)C3C2=O)c1` (stereo unspecified), the figure is above 0.0485 mg/mL; as for `O=C(COc1ccccc1Cl)Nc1ccc(N2CCCC2)cc1`, below 0.0004 mg/mL; as for `CCCOC(=O)c1ccc(NC(=O)c2ccccc2[N+](=O)[O-])cc1`, 0.011 mg/mL (≈ 33.5 µM).
As for `Nc1ccc(-c2cnc[nH]2)cc1[N+](=O)[O-]`, the figure is above 0.0306 mg/mL; as for `CCCc1cc(C(=O)OC)c(NC(=O)CCCC(=O)O)s1`, above 0.047 mg/mL; as for `Cc1cccc(C(=O)NC2CC3CCC(C2)N3C)c1` (stereo unspecified), above 0.0388 mg/mL.
